From patent US11712466B2, “Vaccine composition” (TOHOKU UNIVERSITY, priority 2017, dated 2023)
Ends that are not written are not given here.

Assays:
[1] = system: mouse melanoma cells (B16F1); assay: Subcutaneous implant model, tumor growth inhibitory effect (B16F1); format: in vivo; details: immunized C57BL/6J mice, cells implanted s.c. on day 29, measured 14 days after implantation
Procedure: (§1) After 2 weeks from the administration of each peptide vaccine and incomplete Freund's adjuvant in Example 1 (on day 29 after the initial peptide vaccine administration), mouse-derived tumor cells were implanted in an immunized mouse, whereby a subcutaneous implant model was prepared. Specifically, mouse lung cancer cells (Lewis lung cancer cells (LLC)) or mouse melanoma cells (B16F1) (all have C57BL/6J as a genetic background) cultured in a RPMI+10% FBS medium were collected by centrifugation, and a cell suspension (1.0×10^8 cells/mL) was prepared with a serum-free medium, and 0.1 mL (1.0×10^7 cells/animal) of the cell suspension was implanted in a right axillary subcutaneous region of a mouse using a 27G injection needle and a syringe, whereby a subcutaneous implant model of tumor cells was prepared.

[2] = system: recombinant human VASH2 protein; assay: Antibody titer in blood of immunized mice by ELISA against recombinant VASH2 protein; format: in vivo, mouse; details: Example 1: C57BL/6J mice, KLH-antigen complex s.c., Freund's adjuvant, serum 2 weeks after booster (total 4 weeks)
Source text: (§2) C57BL/6J male mice aged 8 weeks were purchased from Charles River Laboratories Japan, Inc. After the delivery, the mice were reared in an environment where the room temperature and the light and dark cycles were maintained, and were provided with feed and water ad libitum. As a candidate sequence leading to activation of helper T cells by MHC class II, two peptide sequences: MTGSAADTHR (SEQ ID NO: 4; hereinafter, a peptide composed of the amino acid sequence is referred to as “MTG peptide”) and RRRQASPPRR (SEQ ID NO: 5; hereinafter, a peptide composed of the amino acid sequence is referred to as “RRR peptide”), each of which is not common to VASH1 in the VASH2 sequence were selected (FIG. 1). With respect to these peptides, peptide vaccines using KLH as a carrier were constructed. Note that for the conjugation of each peptide with KLH, a glutaraldehyde method was used. When the amount of the peptide introduced into KLH was measured for each of the obtained peptide vaccines, the amount of MTG was 66 to 70 nmol/mg of the conjugate, and the amount of RRR was 62 to 76 nmol/mg of the conjugate. Subsequently, 5 μg of KLH (control) and 20 μg of each of the KLH-antigen complexes were prepared with physiological saline so that the total amount was 50 μL, respectively, whereby KLH-mixed solutions were obtained. To each of the KLH-mixed solutions (50 μL), an equal amount of complete Freund's adjuvant was added. The obtained mixture was subcutaneously administered to the mice, whereby initial immunization was carried out. After 2 weeks from the administration, booster immunization was carried out by subcutaneously administering a mixture of each of the KLH-mixed solutions (50 μL) and an equal amount of incomplete Freund's adjuvant to the mice. Further, after 2 weeks from the booster immunization (after a total of 4 weeks), an increase in the antibody titer in the blood of each of the immunized mice was verified by ELISA.
The measurement of the antibody titer by ELISA was carried out as follows. After 2 weeks from the booster immunization (after a total of 4 weeks), the blood was collected from the facial vein of each of the immunized mice, and the serum separated from the blood was subjected to ELISA. By using 50 mM carbonate buffer, peptide-conjugated BSA was prepared at 10 μg/mL, and further a recombinant VASH2 protein was prepared at 1 μg/mL, each of which was added at 50 μL/well, and the resultant was left to stand overnight at 4° C. After the solution in each well was removed, 5% skim milk was added at 150 μL/well. After the resultant was left to stand at room temperature for 2 hours, the solution was removed, and subsequently, a serum sample diluted by 20 to 62500 times with 5% skim milk was added at 50 μL/well, and the resultant was left to stand overnight at 4° C. Subsequently, washing was carried out with PBS (200 μL/well×6 times), and thereafter, a secondary antibody (HRP-conjugated anti-Mouse IgG) diluted by 1000 times with 5% skim milk was added at 50 μL/well. After the resultant was left to stand at room temperature for 3 hours, washing was carried out with PBS (200 μL/well×3 times). Thereafter, tetramethylbenzidine (TMB) was added at 50 μL/well, and the resultant was left to stand at room temperature under light shielding. After 30 minutes, the reaction was stopped by adding 0.5 N H2SO4 at 50 μL/well, and an absorbance (450 nm) was measured using a microplate reader.

[3] = system: antigen peptide (peptide-conjugated BSA); assay: Antibody titer in blood of immunized mice by ELISA against antigen peptide; format: in vivo, mouse; details: Example 1: C57BL/6J mice, KLH-antigen complex s.c., Freund's adjuvant, serum 2 weeks after booster (total 4 weeks)
Source text: as §2
The measurement of the antibody titer by ELISA was carried out as follows. After 2 weeks from the booster immunization (after a total of 4 weeks), the blood was collected from the facial vein of each of the immunized mice, and the serum separated from the blood was subjected to ELISA. By using 50 mM carbonate buffer, peptide-conjugated BSA was prepared at 10 μg/mL, and further a recombinant VASH2 protein was prepared at 1 μg/mL, each of which was added at 50 μL/well, and the resultant was left to stand overnight at 4° C. After the solution in each well was removed, 5% skim milk was added at 150 μL/well. […] After 30 minutes, the reaction was stopped by adding 0.5 N H2SO4 at 50 μL/well, and an absorbance (450 nm) was measured using a microplate reader.

[4] = system: Lewis lung cancer cells (LLC); assay: Subcutaneous implant model, tumor growth inhibitory effect (LLC); format: in vivo, mouse; details: immunized C57BL/6J mice, cells implanted s.c. on day 29, measured 14 days after implantation
Procedure: as §1

RRR peptide vaccine: RRR peptide RRRQASPPRR (SEQ ID NO: 5) conjugated with KLH as carrier by a glutaraldehyde method (also: conjugated with KLH by glutaraldehyde)
tumor size (tumorigenesis), B16F1 melanoma cells [1]: could not inhibit tumorigenesis
antibody titer against the recombinant human VASH2 protein [2]: a significant increase in the antibody titer was not confirmed
antibody titer against the antigen peptide [3]: significant concentration-dependent increase
tumor size (tumorigenesis), Lewis lung cancer cells [4]: could not inhibit tumorigenesis
